The nature of series [1]: refractive index (Na D-line) (dimensionless); wn = mass fraction of the nth substance listed. The following applies: 298.15 K, 100 kPa, Liquid, Standard Abbe refractometry.
Series [2] can be described thus: wn = mass fraction of the nth substance listed. The following applies: 298.15 K, 100 kPa, Liquid, Pycnometric method.

± gives the expanded uncertainty stated by the source.

Turning to `O=S(=O)([O-])[O-].[Cs+].[Cs+]` [cesium sulfate] + O, the refractive index in series [1] (w1 = 0.6463) is reported as 1.4095 ± 0.002. The mass density in series [2] (w1 = 0.6463) is listed as 2009.2 ± 24 kg/m3.

On to `O=S(=O)([O-])[O-].[Rb+].[Rb+]` [rubidium sulfate] + O, for which, in series [1] (w1 = 0.3365), the refractive index was 1.3649 ± 0.002. For the same molecule, the mass density in series [2] (w1 = 0.3365) amounted to 1363.1 ± 24 kg/m3.

For the molecule `O=S(=O)([O-])[O-].[Na+].[Na+]` [sodium sulfate] + O, the refractive index in series [1] (w1 = 0.218) is recorded as 1.3628 ± 0.002. Also, the mass density in series [2] (w1 = 0.218) came to 1183 ± 24 kg/m3.

The record behind these values is the NIST ThermoML archive (doi:10.1021/acs.jced.8b00693).
